Measured values taken from patent US10344060B2 (priority 2013, dated 2019).

How the values were obtained:
Assay in all cases: cell-based
hNav1.7 = hNav1.7 (Homo sapiens, UniProt Q15858); conditions: read-out: IC50 (μM) Nav1.7
hNav1.3 = hNav1.3 (Homo sapiens, UniProt Q9NY46); conditions: IonWorks Quattro; Table 6; read-out: IC50 (μM) Nav1.3
hNav1.4 = hNav1.4 (Homo sapiens, UniProt P35499); assay type: cell-based; conditions: Table 6; for IC50: IonWorks Quattro, read-out: IC50 (μM) Nav1.4; for Nav1.4/Nav1.7: ratio of IonWorks Quattro IC50 values
Chain of hNav1.4 (P35499 whole entry): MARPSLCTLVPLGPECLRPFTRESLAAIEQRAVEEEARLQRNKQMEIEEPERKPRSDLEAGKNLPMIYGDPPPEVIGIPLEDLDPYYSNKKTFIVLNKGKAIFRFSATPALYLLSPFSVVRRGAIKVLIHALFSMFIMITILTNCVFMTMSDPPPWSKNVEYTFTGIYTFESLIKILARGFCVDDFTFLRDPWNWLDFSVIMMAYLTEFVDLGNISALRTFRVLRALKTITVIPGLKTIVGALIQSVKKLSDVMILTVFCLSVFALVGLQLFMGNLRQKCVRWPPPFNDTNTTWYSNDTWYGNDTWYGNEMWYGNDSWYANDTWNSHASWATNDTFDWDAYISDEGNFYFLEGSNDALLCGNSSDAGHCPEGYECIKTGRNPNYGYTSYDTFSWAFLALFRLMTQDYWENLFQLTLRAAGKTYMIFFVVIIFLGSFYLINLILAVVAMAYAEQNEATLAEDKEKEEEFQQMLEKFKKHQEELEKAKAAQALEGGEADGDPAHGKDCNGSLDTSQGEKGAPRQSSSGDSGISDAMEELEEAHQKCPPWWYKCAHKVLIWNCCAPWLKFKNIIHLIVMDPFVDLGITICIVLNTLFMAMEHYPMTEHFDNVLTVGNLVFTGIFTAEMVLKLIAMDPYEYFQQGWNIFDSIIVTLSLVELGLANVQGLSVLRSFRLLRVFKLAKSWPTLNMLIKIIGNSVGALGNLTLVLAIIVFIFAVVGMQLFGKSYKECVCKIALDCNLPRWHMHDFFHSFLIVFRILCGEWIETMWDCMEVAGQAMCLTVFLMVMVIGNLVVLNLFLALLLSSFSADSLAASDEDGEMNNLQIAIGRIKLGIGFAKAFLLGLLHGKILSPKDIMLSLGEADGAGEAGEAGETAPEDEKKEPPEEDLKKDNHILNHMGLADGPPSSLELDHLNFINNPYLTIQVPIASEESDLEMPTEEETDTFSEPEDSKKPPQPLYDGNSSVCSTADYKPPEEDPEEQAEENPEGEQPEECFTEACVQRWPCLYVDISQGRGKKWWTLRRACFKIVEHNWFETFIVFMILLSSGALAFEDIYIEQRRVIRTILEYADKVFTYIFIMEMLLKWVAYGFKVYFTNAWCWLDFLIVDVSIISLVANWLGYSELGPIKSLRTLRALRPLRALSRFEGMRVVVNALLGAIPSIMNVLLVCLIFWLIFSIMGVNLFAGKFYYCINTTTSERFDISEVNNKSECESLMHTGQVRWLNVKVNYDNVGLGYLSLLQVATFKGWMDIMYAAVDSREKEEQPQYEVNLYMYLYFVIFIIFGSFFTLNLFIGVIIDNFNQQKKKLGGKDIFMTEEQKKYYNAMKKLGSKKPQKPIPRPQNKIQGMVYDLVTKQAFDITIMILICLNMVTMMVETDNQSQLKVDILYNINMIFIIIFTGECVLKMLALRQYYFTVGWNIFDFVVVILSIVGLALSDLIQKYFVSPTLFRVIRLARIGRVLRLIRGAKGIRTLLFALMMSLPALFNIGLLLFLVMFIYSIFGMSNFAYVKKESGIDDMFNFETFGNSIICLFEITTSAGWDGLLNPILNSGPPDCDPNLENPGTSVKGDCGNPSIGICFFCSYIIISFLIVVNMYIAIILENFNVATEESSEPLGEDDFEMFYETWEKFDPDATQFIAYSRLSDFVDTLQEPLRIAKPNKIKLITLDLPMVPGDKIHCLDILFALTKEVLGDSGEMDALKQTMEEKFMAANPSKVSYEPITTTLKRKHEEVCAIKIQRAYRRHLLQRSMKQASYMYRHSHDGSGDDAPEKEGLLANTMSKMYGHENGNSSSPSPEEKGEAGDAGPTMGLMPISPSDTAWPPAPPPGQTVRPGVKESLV

hNav1.5 = hNav1.5 (Homo sapiens, UniProt Q14524); conditions: IonWorks Quattro; Table 6; read-out: IC50 (μM) Nav1.5

Chain of hNav1.7 (Q15858 whole entry): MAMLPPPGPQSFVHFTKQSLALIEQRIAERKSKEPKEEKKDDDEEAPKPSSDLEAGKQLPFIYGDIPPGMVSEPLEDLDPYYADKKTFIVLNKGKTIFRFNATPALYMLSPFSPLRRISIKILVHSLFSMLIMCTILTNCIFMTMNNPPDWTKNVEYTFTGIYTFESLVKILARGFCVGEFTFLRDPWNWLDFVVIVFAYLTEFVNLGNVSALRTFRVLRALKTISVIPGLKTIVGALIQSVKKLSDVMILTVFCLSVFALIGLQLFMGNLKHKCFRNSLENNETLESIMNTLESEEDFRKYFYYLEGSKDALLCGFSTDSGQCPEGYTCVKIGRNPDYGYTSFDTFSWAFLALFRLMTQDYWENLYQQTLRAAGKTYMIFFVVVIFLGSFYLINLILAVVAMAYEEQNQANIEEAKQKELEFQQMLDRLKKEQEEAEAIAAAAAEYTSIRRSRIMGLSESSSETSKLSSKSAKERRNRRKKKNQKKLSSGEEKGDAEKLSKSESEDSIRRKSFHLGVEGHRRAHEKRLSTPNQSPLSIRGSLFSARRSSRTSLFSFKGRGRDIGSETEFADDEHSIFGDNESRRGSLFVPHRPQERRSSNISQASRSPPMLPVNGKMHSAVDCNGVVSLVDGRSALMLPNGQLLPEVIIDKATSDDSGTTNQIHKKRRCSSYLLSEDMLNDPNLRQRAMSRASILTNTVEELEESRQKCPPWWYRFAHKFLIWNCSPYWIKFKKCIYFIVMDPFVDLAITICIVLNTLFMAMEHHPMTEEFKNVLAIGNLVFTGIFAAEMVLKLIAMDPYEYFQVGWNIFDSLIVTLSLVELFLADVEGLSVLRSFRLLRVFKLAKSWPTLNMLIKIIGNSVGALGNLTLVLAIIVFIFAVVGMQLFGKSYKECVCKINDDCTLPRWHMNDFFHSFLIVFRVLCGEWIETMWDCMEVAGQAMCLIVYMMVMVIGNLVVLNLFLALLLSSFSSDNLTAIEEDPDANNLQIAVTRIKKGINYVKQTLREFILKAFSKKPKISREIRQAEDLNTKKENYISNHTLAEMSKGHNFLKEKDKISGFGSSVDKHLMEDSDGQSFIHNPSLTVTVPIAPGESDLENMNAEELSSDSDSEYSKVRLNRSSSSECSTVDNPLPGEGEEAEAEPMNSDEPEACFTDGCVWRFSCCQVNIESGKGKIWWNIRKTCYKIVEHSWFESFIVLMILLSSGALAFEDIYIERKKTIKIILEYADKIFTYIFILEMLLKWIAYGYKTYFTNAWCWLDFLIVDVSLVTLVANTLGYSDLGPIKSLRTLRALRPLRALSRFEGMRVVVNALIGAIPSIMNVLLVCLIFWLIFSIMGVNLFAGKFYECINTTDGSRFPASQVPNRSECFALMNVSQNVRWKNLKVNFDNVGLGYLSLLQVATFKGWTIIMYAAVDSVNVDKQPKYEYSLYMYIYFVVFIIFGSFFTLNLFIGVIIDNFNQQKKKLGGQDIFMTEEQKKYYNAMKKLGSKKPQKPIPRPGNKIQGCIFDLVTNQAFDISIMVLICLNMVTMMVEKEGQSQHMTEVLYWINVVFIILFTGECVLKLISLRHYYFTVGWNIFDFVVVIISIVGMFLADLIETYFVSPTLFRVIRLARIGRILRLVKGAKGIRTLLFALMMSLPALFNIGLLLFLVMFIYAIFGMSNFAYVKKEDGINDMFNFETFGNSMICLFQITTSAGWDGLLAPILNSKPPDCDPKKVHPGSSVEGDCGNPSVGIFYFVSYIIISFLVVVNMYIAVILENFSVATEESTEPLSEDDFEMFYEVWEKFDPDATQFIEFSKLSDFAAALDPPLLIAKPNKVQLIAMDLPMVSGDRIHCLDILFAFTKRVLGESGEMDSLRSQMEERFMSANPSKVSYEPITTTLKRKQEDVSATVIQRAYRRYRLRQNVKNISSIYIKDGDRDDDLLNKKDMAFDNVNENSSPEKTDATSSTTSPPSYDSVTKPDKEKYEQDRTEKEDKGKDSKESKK

SMILES: CC[C@H](C)[C@H](NC(=O)[C@@H](NC(=O)[C@H](CCCCN)NC(=O)[C@H](CCCNC(=N)N)NC(=O)[C@@H]1CSSC[C@@H]2NC(=O)[C@H](C)NC(=O)[C@H](CCCNC(=N)N)NC(=O)[C@H](CCCCN)NC(=O)[C@H](CO)NC(=O)[C@H](CC(=O)O)NC(=O)[C@@H]3CSSC[C@H](NC(=O)[C@H](CCCNC(=N)N)NC(=O)[C@H](CC(C)C)NC(=O)CNC(=O)[C@H](CCC(=O)O)NC(=O)[C@H](CSSC[C@H](NC(=O)[C@@H](N)CCCNC(=N)N)C(=O)N[C@@H](CCC(N)=O)C(=O)N[C@@H](CCCCN)C(=O)N[C@@H](Cc4c[nH]c5ccccc45)C(=O)N[C@@H](CCSC)C(=O)N[C@@H](Cc4c[nH]c5ccccc45)C(=O)N[C@@H]([C@@H](C)O)C(=O)N3)NC2=O)C(=O)N[C@@H](CCCCN)C(=O)N[C@@H](CC(C)C)C(=O)N[C@@H](Cc2c[nH]c3ccccc23)C(=O)N1)[C@@H](C)CC)C(N)=O [compound 90]
- IC50 (hNav1.7): 0.005 µM
- IC50 (hNav1.3): 0.04 µM
- IC50 (hNav1.4): 0.12 µM
- Nav1.4/Nav1.7 (hNav1.4): 24
- IC50 (hNav1.5): 1.8 µM

SMILES: CC[C@H](C)[C@H](NC(=O)[C@H](CCCCN)NC(=O)[C@H](CCCNC(=N)N)NC(=O)[C@@H]1CSSC[C@@H]2NC(=O)[C@H](C)NC(=O)[C@H](CCCNC(=N)N)NC(=O)[C@H](CCCCN)NC(=O)[C@H](CO)NC(=O)[C@H](CC(=O)O)NC(=O)[C@@H]3CSSC[C@H](NC(=O)[C@H](CCCNC(=N)N)NC(=O)[C@H](CC(C)C)NC(=O)CNC(=O)[C@H](CCC(=O)O)NC(=O)[C@H](CSSC[C@H](NC(=O)[C@@H](N)Cc4ccc(O)cc4)C(=O)N[C@@H](CCC(N)=O)C(=O)N[C@@H](CCCCN)C(=O)N[C@@H](Cc4c[nH]c5ccccc45)C(=O)N[C@@H](CCSC)C(=O)N[C@@H](Cc4c[nH]c5ccccc45)C(=O)N[C@@H]([C@@H](C)O)C(=O)N3)NC2=O)C(=O)N[C@@H](CCCCN)C(=O)N[C@@H](CC(C)C)C(=O)N[C@@H](Cc2c[nH]c3ccccc23)C(=O)N1)C(=O)N[C@@H](C)C(N)=O [compound 24]
- IC50 (hNav1.7): 0.053 µM
- IC50 (hNav1.3): 0.45 µM
- IC50 (hNav1.4): 0.27 µM
- Nav1.4/Nav1.7 (hNav1.4): 5
- IC50 (hNav1.5): > 5 µM

SMILES: CC[C@H](C)[C@H](NC(=O)[C@@H](NC(=O)[C@H](CCCCN)NC(=O)[C@H](CCCNC(=N)N)NC(=O)[C@@H]1CSSC[C@@H]2NC(=O)[C@H](C)NC(=O)[C@H](CCCNC(=N)N)NC(=O)[C@H](CCCCN)NC(=O)[C@H](CO)NC(=O)[C@H](CC(=O)O)NC(=O)[C@@H]3CSSC[C@H](NC(=O)[C@H](CCCNC(=N)N)NC(=O)[C@H](CC(C)C)NC(=O)CNC(=O)[C@H](CCC(=O)O)NC(=O)[C@H](CSSC[C@H](NC(=O)[C@@H](N)CCCCN)C(=O)N[C@@H](CCC(N)=O)C(=O)N[C@@H](CCCCN)C(=O)N[C@@H](Cc4c[nH]c5ccccc45)C(=O)N[C@@H](CCSC)C(=O)N[C@@H](Cc4c[nH]c5ccccc45)C(=O)N[C@@H]([C@@H](C)O)C(=O)N3)NC2=O)C(=O)N[C@@H](CCCCN)C(=O)N[C@@H](CC(C)C)C(=O)N[C@@H](Cc2c[nH]c3ccccc23)C(=O)N1)[C@@H](C)CC)C(N)=O [compound 71]
- IC50 (hNav1.7): 0.005 µM
- IC50 (hNav1.3): 0.05 µM
- IC50 (hNav1.4): 0.06 µM
- Nav1.4/Nav1.7 (hNav1.4): 12
- IC50 (hNav1.5): 2.3 µM

SMILES: CC[C@H](C)[C@H](NC(=O)[C@@H](NC(=O)[C@H](CCCCN)NC(=O)[C@H](CCCNC(=N)N)NC(=O)[C@@H]1CSSC[C@@H]2NC(=O)[C@H](C)NC(=O)[C@H](CCCNC(=N)N)NC(=O)[C@H](CCCCN)NC(=O)[C@H](CCCNC(=N)N)NC(=O)[C@H](CC(=O)O)NC(=O)[C@@H]3CSSC[C@H](NC(=O)[C@H](CCCNC(=N)N)NC(=O)[C@H](CC(C)C)NC(=O)CNC(=O)[C@H](CCC(=O)O)NC(=O)[C@H](CSSC[C@H](NC(=O)[C@@H](N)Cc4ccc(O)cc4)C(=O)N[C@@H](CCC(N)=O)C(=O)N[C@@H](CCCCN)C(=O)N[C@@H](Cc4c[nH]c5ccccc45)C(=O)N[C@@H](CCSC)C(=O)N[C@@H](Cc4c[nH]c5ccccc45)C(=O)N[C@@H]([C@@H](C)O)C(=O)N3)NC2=O)C(=O)N[C@@H](CCCCN)C(=O)N[C@@H](CC(C)C)C(=O)N[C@@H](Cc2c[nH]c3ccccc23)C(=O)N1)[C@@H](C)CC)C(N)=O [compound 98]
- IC50 (hNav1.7): 0.007 µM
- IC50 (hNav1.3): 0.03 µM
- IC50 (hNav1.4): 0.09 µM
- Nav1.4/Nav1.7 (hNav1.4): 12
- IC50 (hNav1.5): 0.86 µM

SMILES: CC[C@H](C)[C@H](NC(=O)[C@@H](NC(=O)[C@H](CCCCN)NC(=O)[C@H](CCCNC(=N)N)NC(=O)[C@@H]1CSSC[C@@H]2NC(=O)[C@H](C)NC(=O)[C@H](CCCNC(=N)N)NC(=O)[C@H](CCCCN)NC(=O)[C@H](CO)NC(=O)[C@H](CC(=O)O)NC(=O)[C@@H]3CSSC[C@H](NC(=O)[C@H](CCCNC(=N)N)NC(=O)[C@H](CC(C)C)NC(=O)CNC(=O)[C@H](CCCCN)NC(=O)[C@H](CSSC[C@H](NC(=O)[C@@H](N)Cc4ccc(O)cc4)C(=O)N[C@@H](CCC(N)=O)C(=O)N[C@@H](CCCCN)C(=O)N[C@@H](Cc4c[nH]c5ccccc45)C(=O)N[C@@H](CCSC)C(=O)N[C@@H](Cc4c[nH]c5ccccc45)C(=O)N[C@@H]([C@@H](C)O)C(=O)N3)NC2=O)C(=O)N[C@@H](CCCCN)C(=O)N[C@@H](CC(C)C)C(=O)N[C@@H](Cc2c[nH]c3ccccc23)C(=O)N1)[C@@H](C)CC)C(N)=O [compound 81]
- IC50 (hNav1.7): 0.01 µM
- IC50 (hNav1.3): 0.03 µM
- IC50 (hNav1.4): 0.05 µM
- Nav1.4/Nav1.7 (hNav1.4): 5
- IC50 (hNav1.5): 0.89 µM

SMILES: CC[C@H](C)[C@H](NC(=O)[C@@H](NC(=O)[C@H](CCCCN)NC(=O)[C@H](CCCNC(=N)N)NC(=O)[C@@H]1CSSC[C@@H]2NC(=O)[C@H](C)NC(=O)[C@H](CCCNC(=N)N)NC(=O)[C@H](CCCCN)NC(=O)[C@H](CO)NC(=O)[C@H](CC(=O)O)NC(=O)[C@@H]3CSSC[C@H](NC(=O)[C@H](CCCNC(=N)N)NC(=O)[C@H](CC(C)C)NC(=O)CNC(=O)[C@H](CCC(=O)O)NC(=O)[C@H](CSSC[C@H](NC(=O)[C@@H](N)Cc4ccc(O)cc4)C(=O)N[C@@H](CCC(N)=O)C(=O)N[C@@H](CCCCN)C(=O)N[C@@H](Cc4c[nH]c5ccccc45)C(=O)N[C@@H](CCSC)C(=O)N[C@@H](Cc4c[nH]c5ccccc45)C(=O)N[C@@H]([C@@H](C)O)C(=O)N3)NC2=O)C(=O)N[C@@H](CCCCN)C(=O)N[C@@H](CCCNC(=N)N)C(=O)N[C@@H](Cc2c[nH]c3ccccc23)C(=O)N1)[C@@H](C)CC)C(N)=O [compound 105]
- IC50 (hNav1.7): 0.15 µM
- IC50 (hNav1.3): 0.15 µM
- IC50 (hNav1.4): 0.21 µM
- Nav1.4/Nav1.7 (hNav1.4): 1
- IC50 (hNav1.5): 2.8 µM

SMILES: CC[C@H](C)[C@H](NC(=O)[C@@H](NC(=O)[C@H](CCCCN)NC(=O)[C@H](CCCNC(=N)N)NC(=O)[C@@H]1CSSC[C@@H]2NC(=O)[C@H](C)NC(=O)[C@H](CCCNC(=N)N)NC(=O)[C@H](CCCCN)NC(=O)[C@H](CO)NC(=O)[C@H](CC(=O)O)NC(=O)[C@@H]3CSSC[C@H](NC(=O)[C@H](CCCNC(=N)N)NC(=O)[C@H](CC(C)C)NC(=O)CNC(=O)[C@H](CCC(=O)O)NC(=O)[C@H](CSSC[C@H](NC(=O)[C@@H](N)Cc4ccc(O)cc4)C(=O)N[C@@H](CCC(N)=O)C(=O)N[C@@H](CCCCN)C(=O)N[C@@H](Cc4c[nH]c5ccccc45)C(=O)N[C@@H](CCSC)C(=O)N[C@@H](Cc4c[nH]c5ccccc45)C(=O)N[C@@H](CCCCN)C(=O)N3)NC2=O)C(=O)N[C@@H](CCCCN)C(=O)N[C@@H](CC(C)C)C(=O)N[C@@H](Cc2c[nH]c3ccccc23)C(=O)N1)[C@@H](C)CC)C(N)=O [compound 76]
- IC50 (hNav1.7): 0.031 µM
- IC50 (hNav1.3): 0.1 µM
- IC50 (hNav1.4): 0.1 µM
- Nav1.4/Nav1.7 (hNav1.4): 3
- IC50 (hNav1.5): 3.7 µM

SMILES: CC[C@H](C)[C@H](NC(=O)[C@@H](NC(=O)[C@H](CCCCN)NC(=O)[C@H](CCCNC(=N)N)NC(=O)[C@@H]1CSSC[C@@H]2NC(=O)[C@H](C)NC(=O)[C@H](CCCNC(=N)N)NC(=O)[C@H](CCCCN)NC(=O)[C@H](CO)NC(=O)[C@H](CC(=O)O)NC(=O)[C@@H]3CSSC[C@H](NC(=O)[C@H](CCCNC(=N)N)NC(=O)[C@H](CC(C)C)NC(=O)CNC(=O)[C@H](CCC(=O)O)NC(=O)[C@H](CSSC[C@H](NC(=O)[C@@H](N)Cc4ccc(O)cc4)C(=O)N[C@@H](CCC(N)=O)C(=O)N[C@@H](CCCCN)C(=O)N[C@@H](Cc4c[nH]c5ccccc45)C(=O)N[C@@H](CCSC)C(=O)N[C@@H](Cc4c[nH]c5ccccc45)C(=O)N[C@@H]([C@@H](C)O)C(=O)N3)NC2=O)C(=O)N[C@@H](CCCNC(=N)N)C(=O)N[C@@H](CC(C)C)C(=O)N[C@@H](Cc2c[nH]c3ccccc23)C(=O)N1)[C@@H](C)CC)C(N)=O [compound 104]
- IC50 (hNav1.7): 0.016 µM
- IC50 (hNav1.3): 0.08 µM
- IC50 (hNav1.4): 0.17 µM
- Nav1.4/Nav1.7 (hNav1.4): 11
- IC50 (hNav1.5): 2 µM

SMILES: CC[C@H](C)[C@H](NC(=O)[C@H](CCCCN)NC(=O)[C@H](CCCNC(=N)N)NC(=O)[C@@H]1CSSC[C@@H]2NC(=O)[C@H](C)NC(=O)[C@H](CCCNC(=N)N)NC(=O)[C@H](CCCCN)NC(=O)[C@H](CO)NC(=O)[C@H](CC(=O)O)NC(=O)[C@@H]3CSSC[C@H](NC(=O)[C@H](CCCNC(=N)N)NC(=O)[C@H](CC(C)C)NC(=O)CNC(=O)[C@H](CCC(=O)O)NC(=O)[C@H](CSSC[C@H](NC(=O)[C@@H](N)Cc4ccc(O)cc4)C(=O)N[C@@H](CCC(N)=O)C(=O)N[C@@H](CCCCN)C(=O)N[C@@H](Cc4c[nH]c5ccccc45)C(=O)N[C@@H](CCSC)C(=O)N[C@@H](Cc4c[nH]c5ccccc45)C(=O)N[C@@H]([C@@H](C)O)C(=O)N3)NC2=O)C(=O)N[C@@H](CCCCN)C(=O)N[C@@H](CC(C)C)C(=O)N[C@@H](Cc2c[nH]c3ccccc23)C(=O)N1)C(=O)N[C@@H](CCCNC(=N)N)C(N)=O [compound 109]
- IC50 (hNav1.7): 0.067 µM
- IC50 (hNav1.3): 1.3 µM
- IC50 (hNav1.4): 1.1 µM
- Nav1.4/Nav1.7 (hNav1.4): 16
- IC50 (hNav1.5): > 5 µM
